Data published in ChEMBL document CHEMBL5331123, “Potent Dual Inhibitors of Steroid Sulfatase and 17β-Hydroxysteroid Dehydrogenase Type 1 with a Suitable Pharmacokinetic Profile for In Vivo Proof-of-Principle Studies in an Endometriosis Mouse Model” (J Med Chem, 2023).
Converted amounts (≈) assume the structure as drawn.

What was measured:
[1] = target: T1, Steryl-sulfatase (Homo sapiens, UniProt P08842); assay: Inhibition of human STS expressed in human T47D cells using [3H]E1S as substrate incubated for 1 hr followed by substrate addition measured after 24 hrs in presence of E1S by HPLC analysis; assay type: cell-based
T1 sequence (P08842 whole entry): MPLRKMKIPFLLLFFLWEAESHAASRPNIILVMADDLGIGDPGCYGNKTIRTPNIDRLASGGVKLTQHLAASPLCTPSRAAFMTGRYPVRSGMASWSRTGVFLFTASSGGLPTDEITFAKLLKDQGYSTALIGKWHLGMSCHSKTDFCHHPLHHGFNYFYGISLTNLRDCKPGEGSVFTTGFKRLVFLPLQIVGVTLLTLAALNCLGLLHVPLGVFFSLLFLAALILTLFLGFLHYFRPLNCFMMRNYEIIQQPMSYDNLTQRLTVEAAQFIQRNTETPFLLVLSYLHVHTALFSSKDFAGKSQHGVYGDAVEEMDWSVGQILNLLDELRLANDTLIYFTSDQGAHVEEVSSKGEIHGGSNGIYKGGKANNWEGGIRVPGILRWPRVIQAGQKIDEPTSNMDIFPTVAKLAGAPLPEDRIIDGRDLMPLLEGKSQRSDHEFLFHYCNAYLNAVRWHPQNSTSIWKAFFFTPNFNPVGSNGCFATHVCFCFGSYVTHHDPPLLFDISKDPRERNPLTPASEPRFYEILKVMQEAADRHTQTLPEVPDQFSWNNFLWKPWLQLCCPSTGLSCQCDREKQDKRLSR

[2] = target: T2, 17-beta-hydroxysteroid dehydrogenase type 1 (Homo sapiens, UniProt P14061); assay: Inhibition of human 17beta-HSD1 expressed in human T47D cells using [3H]E1 as substrate incubated for 1 hr followed by substrate addition measured after 40 mins in presence of E1 by HPLC analysis; assay type: cell-based
T2 sequence (P14061 whole entry): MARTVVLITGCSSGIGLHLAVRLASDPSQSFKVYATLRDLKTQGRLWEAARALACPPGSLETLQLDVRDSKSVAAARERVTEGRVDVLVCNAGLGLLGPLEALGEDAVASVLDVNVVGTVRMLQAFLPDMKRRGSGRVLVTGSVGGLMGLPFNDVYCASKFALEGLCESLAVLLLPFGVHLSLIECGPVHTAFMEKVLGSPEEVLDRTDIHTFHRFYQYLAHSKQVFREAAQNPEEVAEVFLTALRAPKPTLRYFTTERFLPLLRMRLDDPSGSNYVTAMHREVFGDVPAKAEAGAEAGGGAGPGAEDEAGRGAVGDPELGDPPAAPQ

[3] = target: T2, 17-beta-hydroxysteroid dehydrogenase type 1; assay: Inhibition of human placental cytosolic fraction 17beta-HSD1 using [3H]E1 as substrate measured after 10 mins in presence of NADH by HPLC analysis; assay type: tissue-based, Placenta
[4] = target: T3, 17-beta-hydroxysteroid dehydrogenase type 2 (Homo sapiens, UniProt P37059); assay: Inhibition of human placental microsomal fraction 17beta-HSD2 using [3H]E2 as substrate measured after 20 mins in presence of NAD+ by HPLC analysis; assay type: microsomes, Placenta, Microsome
T3 sequence (P37059 whole entry): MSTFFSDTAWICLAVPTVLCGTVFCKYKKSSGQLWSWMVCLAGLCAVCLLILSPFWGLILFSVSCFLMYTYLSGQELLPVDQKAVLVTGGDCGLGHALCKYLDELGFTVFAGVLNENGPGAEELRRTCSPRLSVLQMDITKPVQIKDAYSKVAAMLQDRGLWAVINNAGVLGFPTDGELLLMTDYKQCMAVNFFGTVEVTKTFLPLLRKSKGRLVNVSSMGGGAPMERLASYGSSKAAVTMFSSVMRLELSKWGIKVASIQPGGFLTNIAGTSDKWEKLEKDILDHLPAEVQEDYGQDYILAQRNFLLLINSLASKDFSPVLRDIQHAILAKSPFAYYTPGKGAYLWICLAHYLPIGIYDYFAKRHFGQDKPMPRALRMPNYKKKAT

[5] = species: Homo sapiens; assay: Selectivity ratio of IC50 for human placental microsomal fraction 17beta-HSD2 to IC50 for human placental microsomal fraction 17beta-HSD1
[6] = target: T4, Steryl-sulfatase (Homo sapiens) (UniProt P08842); assay: Inhibition of human STS expressed in human T47D cells at 1 uM using [3H]E1S as substrate incubated for 1 hr followed by substrate addition measured after 24 hrs in presence of E1S by HPLC analysis relative to control; assay type: cell-based; details: time 25.0 hrs
T4 sequence (whole entry): T1 sequence (P08842 whole entry)

[7] = target: T5, Aryl hydrocarbon receptor (Homo sapiens, UniProt P35869); assay: Activation of AhR in human HepG2 cells assessed as increase in CYP1A1 activity at 3.16 uM measured after 48 hrs by fluorescence based analysis; assay type: cell-based; details: hepg2, 48 h
T5 sequence (P35869 whole entry): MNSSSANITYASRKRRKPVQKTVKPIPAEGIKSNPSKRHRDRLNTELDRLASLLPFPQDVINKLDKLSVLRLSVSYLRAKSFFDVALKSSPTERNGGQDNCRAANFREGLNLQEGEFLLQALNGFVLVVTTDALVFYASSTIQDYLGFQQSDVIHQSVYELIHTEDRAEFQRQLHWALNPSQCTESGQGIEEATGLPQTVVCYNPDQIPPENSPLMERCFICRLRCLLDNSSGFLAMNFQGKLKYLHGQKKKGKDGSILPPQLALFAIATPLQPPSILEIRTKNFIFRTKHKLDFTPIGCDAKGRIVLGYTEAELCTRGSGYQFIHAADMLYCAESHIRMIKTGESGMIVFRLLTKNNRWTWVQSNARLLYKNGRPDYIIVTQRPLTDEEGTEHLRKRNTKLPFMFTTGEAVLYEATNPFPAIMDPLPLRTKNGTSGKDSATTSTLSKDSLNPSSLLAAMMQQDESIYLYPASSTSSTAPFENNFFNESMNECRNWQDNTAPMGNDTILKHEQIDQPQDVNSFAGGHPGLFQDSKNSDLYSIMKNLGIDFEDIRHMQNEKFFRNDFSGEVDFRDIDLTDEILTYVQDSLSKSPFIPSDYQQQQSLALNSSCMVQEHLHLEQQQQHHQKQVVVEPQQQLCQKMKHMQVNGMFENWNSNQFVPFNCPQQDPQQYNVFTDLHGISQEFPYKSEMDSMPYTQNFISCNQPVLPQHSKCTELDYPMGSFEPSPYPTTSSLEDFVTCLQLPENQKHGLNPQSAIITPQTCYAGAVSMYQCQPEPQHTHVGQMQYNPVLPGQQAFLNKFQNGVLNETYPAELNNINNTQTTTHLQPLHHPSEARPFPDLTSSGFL

[8] = Metabolic stability in human liver S9 fraction assessed as half life measured upto 60 mins in presence of NADPH by LC-MS/MS analysis; assay type: ADME, subcellular; details: liver S9 fraction
[9] = Metabolic stability in mouse liver S9 fraction assessed as half life measured upto 60 mins in presence of NADPH by LC-MS/MS analysis; assay type: ADME, subcellular; details: liver S9 fraction
[10] = target: T1, Steryl-sulfatase; assay: Irreversible inhibition of human STS expressed in human T47D cells using [3H]E1S as substrate preincubated for 2 hr followed by substrate addition measured after 24 hrs in presence of E1S by HPLC analysis; assay type: cell-based
[11] = Metabolic stability in human liver S9 fraction assessed as intrinsic clearance measured upto 60 mins in presence of NADPH by LC-MS/MS analysis; assay type: ADME, subcellular; details: read-out: CLH
[12] = test system: HEK293; assay: Cytotoxicity against HEK293 cells assessed as cell growth inhibition by measuring lethal concentration measured after 72 hrs by MTT assay; assay type: functional, Homo sapiens
[13] = test system: HepG2; assay: Cytotoxicity against human HepG2 cells assessed as cell growth inhibition by measuring lethal concentration measured after 48 hrs by MTT assay; assay type: functional
[14] = Observed Cmax in C57BL/6 mouse at 50 mg/kg, sc administered as single dose measured upto 24 hrs by HPLC-MS/MS analysis; assay type: ADME, organism-based; set-up: time < 24 hrs, dose 50 mg/kg, route sc; details: in vivo
[15] = Drug concentration in C57BL/6 mouse at 50 mg/kg, sc administered as single dose measured after 24 hrs by HPLC-MS/MS analysis; assay type: ADME, organism-based; details: in vivo, read-out: Drug uptake
[16] = Half life in C57BL/6 mouse at 50 mg/kg, sc administered as single dose measured after 24 hrs by HPLC-MS/MS analysis; assay type: ADME, organism-based; details: in vivo
[17] = AUC(0 to 24 hrs) in C57BL/6 mouse at 50 mg/kg, sc administered as single dose measured after 24 hrs by HPLC-MS/MS analysis; assay type: ADME, organism-based; set-up: time 24 hrs, dose 50 mg/kg, route sc; details: in vivo
[18] = Lipophilicity, logD of compound at pH 7.4; assay type: physicochemical; details: buffer
[19] = Aqueous solubility of compound in PBS measured after 1 to 24 hrs; assay type: physicochemical; details: time 1-24 hrs
[20] = Oral bioavailability in C57BL/6 mouse at 50 mg/kg administered as single dose measured after 24 hrs by HPLC-MS/MS analysis; assay type: ADME, organism-based; details: in vivo
[21] = Cmax in C57BL/6 mouse at 50 mg/kg, sc administered as single dose ever day measured after 2 hrs by HPLC-MS/MS analysis; assay type: ADME, organism-based; set-up: dose 50 mg/kg, time 2 hrs, route sc; details: in vivo
[22] = Cmin in C57BL/6 mouse at 50 mg/kg, sc administered as single dose ever day measured after 24 hrs by HPLC-MS/MS analysis; assay type: ADME, organism-based; details: in vivo, read-out: Cmin
[23] = species: Homo sapiens; assay: Selectivity ratio of IC50 for human 17beta-HSD2 to IC50 for human 17beta-HSD1

IC50 [1]	IC50 [2]	IC50 [3]	IC50 [4]	Ratio IC50 [5]	SMILES	half-life [8]	also measured
83 nM	140 nM	500 nM	3200 nM	6	Cc1cc(-c2ccc(C(=O)N(C)c3ccc(OS(N)(=O)=O)c(F)c3)o2)cc(C)c1O	–	–
–	140 nM	–	–	–	Cc1cc(-c2ccc(C(=O)N(C)c3c(C)cccc3OS(N)(=O)=O)o2)cc(C)c1O	–	inhibition [6]: < 10%; Activity [7]: Not Active
150 nM	110 nM	430 nM	7700 nM	18	Cc1cc(-c2ccc(C(=O)N(C)c3ccc(OS(N)(=O)=O)cc3)o2)cc(C)c1O	–	–
92 nM	80 nM	180 nM	6400 nM	36	Cc1cc(-c2ccc(C(=O)N(C)c3cccc(OS(N)(=O)=O)c3)o2)cc(C)c1O	–	–
–	–	–	–	–	O=C(c1ccc(-c2ccc(O)cc2)s1)c1c(F)ccc(O)c1F	< 5 min	Ratio IC50 [23]: 24

SMILES	IC50 [1]	IC50 [2]	IC50 [3]	IC50 [4]	Ratio IC50 [5]	half-life [8]	also measured
Cc1cc(OS(N)(=O)=O)ccc1N(C)C(=O)c1ccc(-c2cc(C)c(O)c(C)c2)o1	400 nM	11 nM	43 nM	6200 nM	145	85.2 min	half-life [9]: 56.1 min; IC50 [10]: 420 nM; microsomal CLint [11]: 8.2 µL/min/mg; LC20 [12]: <=31 uM; LC20 [13]: 23000 nM; Activity [7]: Not Active; Cmax [14]: 2820 nM; concentration at 24 h [15]: 797 nM; half-life [16]: 229 min; AUC(0-t) at 24 h [17]: 11600 ng·h/mL; logD [18]: 2.2; solubility [19]: 40 µM (≈ 17.2 µg/mL); bioavailability [20]: 1.5%; Cmax [21]: 2350 nM; concentration at 24 h [22]: 800 nM
Cc1cc(OS(N)(=O)=O)c(Cl)cc1N(C)C(=O)c1ccc(-c2cc(C)c(O)c(C)c2)o1	76 nM	53 nM	68 nM	7500 nM	110	35.6 min	half-life [9]: 22.5 min; IC50 [10]: 79 nM; microsomal CLint [11]: 19.4 µL/min/mg; LC20 [12]: <=27 uM; LC20 [13]: 31000 nM; Cmax [14]: 400 nM; concentration at 24 h [15]: 62 nM; half-life [16]: 169 min; AUC(0-t) at 24 h [17]: 1900 ng·h/mL; logD [18]: 2.75; solubility [19]: 20 µM (≈ 9.3 µg/mL)
